For series [1], the species on record is Bos taurus. The series is described as follows: Inhibition of L-type voltage dependent calcium channel in bovine Chromaffin cells assessed as reduction in K+-induced calcium current amplitude at 10 uM preincubated for 5 mins followed by potassium challenge measured by Fluo-4AM dye based fluorescence assay relative to control. In kind it is cell-based.
The test system of series [2] is SH-SY5Y. The series is described as follows: Neuroprotective activity against rotenone/oligomycin A-induced mitochondrial oxidative stress in human SH-SY5Y cells assessed as cell survival at 0.3 uM pretreated for 24 hrs followed by rotenone/oligomycin A challenge measured after 24 hrs by MTT assay relative to control. In kind it is functional. The settings on record: read-out: Survival. In general terms: Tetrazolium dyes change colour on reduction, which living cells bring about.

A short description of series [3]: Inhibition of L-type voltage dependent calcium channel in bovine Chromaffin cells assessed as reduction in K+-induced cytosolic free calcium transient current preincubated for 5 mins followed by potassium challenge measured by Fluo-4AM dye based fluorescence assay. The format is cell-based. Particulars: Bos taurus.
For series [4], the system named is Hippocampus. As to the kind of experiment: Neuroprotective activity in oxygen glucose deprivation/re-oxygenation-induced Sprague-Dawley rat hippocampal slice cerebral ischemia model assessed as cell viability at 3 uM incubated for 2 hrs under normoxic condition by MTT assay (reference value: 40%). In kind it is functional.
In series [5] the test system is SH-SY5Y. The series is described as follows: Cytotoxicity against human SH-SY5Y cells at 0.3 uM after 24 hrs by MTT assay. In kind it is cell-based.
Series [6] can be described thus: Antioxidant activity assessed as oxygen radical absorbance capacity at 10 uM. The format is functional.
The subject of series [7] is SH-SY5Y. The series is described as follows: Neuroprotective activity against oxygen glucose deprivation/re-oxygenation-induced mitochondrial oxidative stress in human SH-SY5Y cells assessed as cell survival at 0.3 uM pretreated for 24 hrs followed by 4 hrs incubation under oxygen glucose deprivation medium and subsequent exposure to normoxic condition by MTT assay relative to control. Particulars: read-out: Survival. In kind it is functional.

The species entered for series [8] is Bos taurus. The series is described as follows: Inhibition of L-type voltage dependent calcium channel in bovine Chromaffin cells assessed as reduction in K+-induced calcium transient current area at 10 uM preincubated for 5 mins followed by potassium challenge measured by Fluo-4AM dye based fluorescence assay relative to control. In kind it is cell-based.
The target in series [9] is T1, Voltage-gated L-type calcium channel (Homo sapiens, UniProt Q13936+Q13698+Q01668+O60840). The series is described as follows: Inhibition of L-type voltage dependent calcium channel in human SH-SY5Y cells assessed as reduction in K+-induced cytosolic free calcium transient current preincubated for 15 mins followed by potassium challenge measured for 14 secs by Fluo-4AM dye based fluorescence assay. In kind it is cell-based.

The nature of series [10]: physchem. The settings on record: PAMPA, pH 7.4. (PAMPA measures passive passage across an artificial lipid membrane.)
Description: Permeability of the compound at pH 7.4 at 1 mg/ml after 4 hrs by PAMPA-BBB assay
The target of series [11] is Acetylcholinesterase (Homo sapiens, UniProt P22303). The series is described as follows: Inhibition of recombinant human AChE expressed in HEK293 cells using acetylthiocholine iodide as substrate pretreated for 5 mins followed by substrate addition measured for 5 mins by UV-Vis spectrophotometric method.
The target in series [12] is Cholinesterase (Homo sapiens, UniProt P06276). As to the kind of experiment: Inhibition of human serum BuChE using butyrylthiocholine iodide as substrate pretreated for 5 mins followed by substrate addition measured for 5 mins by UV-Vis spectrophotometric method.
Series [13] is filed under the species Homo sapiens. The series is described as follows: Ratio of IC50 for recombinant human AChE expressed in HEK293 cells to IC50 for human serum BuChE. The format is cell-based.
The nature of series [14]: Antioxidant activity assessed as oxygen radical absorbance capacity at 10 uM relative to trolox. The format is functional.
In series [15] the target is T1, Voltage-gated L-type calcium channel. The series is described as follows: Inhibition of L-type voltage dependent calcium channel in human SH-SY5Y cells assessed as reduction in K+-induced cytosolic free calcium transient current at 100 uM preincubated for 15 mins followed by potassium challenge measured for 14 secs by Fluo-4AM dye based fluorescence assay relative to control. The format is cell-based. Particulars: 14 s.

The subject of series [16] is Hippocampus. As to the kind of experiment: Neuroprotective activity in oxygen glucose deprivation/re-oxygenation-induced Sprague-Dawley rat hippocampal slice cerebral ischemia model assessed as increase in cell viability incubated for 2 hrs under normoxic condition by MTT assay. In kind it is functional, tissue-based.
Series [17] has as its system Hippocampus. As to the kind of experiment: Neuroprotective activity in oxygen glucose deprivation/re-oxygenation-induced Sprague-Dawley rat hippocampal slice cerebral ischemia model assessed as cell viability at 1 uM incubated for 2 hrs under normoxic condition by MTT assay (reference value: 40%). The format is functional.

We go through 16 molecules from ChEMBL document CHEMBL4049396, “Enzymatic and solid-phase synthesis of new donepezil-based L- and d-glutamic acid derivatives and their pharmacological evaluation in models related to Alzheimer's disease and cerebral ischemia” (Eur J Med Chem, 2017).

The source made the active and inactive calls. The rule behind the calls is not given here. A value given as a limit tells only on which side of the number the result lay.

Cholinesterase, sequence (P06276 whole entry): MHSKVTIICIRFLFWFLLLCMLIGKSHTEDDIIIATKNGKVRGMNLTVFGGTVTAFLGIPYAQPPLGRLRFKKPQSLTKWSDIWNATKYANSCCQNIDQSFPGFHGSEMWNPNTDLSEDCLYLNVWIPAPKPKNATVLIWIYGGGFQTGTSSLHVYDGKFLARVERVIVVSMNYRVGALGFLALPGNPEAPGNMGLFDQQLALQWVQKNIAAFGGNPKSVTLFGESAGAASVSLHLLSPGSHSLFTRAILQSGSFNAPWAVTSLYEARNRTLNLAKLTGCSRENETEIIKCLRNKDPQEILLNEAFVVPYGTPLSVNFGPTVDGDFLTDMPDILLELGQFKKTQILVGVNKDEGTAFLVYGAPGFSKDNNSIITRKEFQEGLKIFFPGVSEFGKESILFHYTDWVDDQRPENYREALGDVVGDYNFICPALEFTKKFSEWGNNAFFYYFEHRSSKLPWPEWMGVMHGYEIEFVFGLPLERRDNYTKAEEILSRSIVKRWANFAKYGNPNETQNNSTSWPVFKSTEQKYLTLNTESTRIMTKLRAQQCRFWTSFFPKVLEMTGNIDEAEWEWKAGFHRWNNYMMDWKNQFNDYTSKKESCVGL
Acetylcholinesterase, sequence (P22303 whole entry): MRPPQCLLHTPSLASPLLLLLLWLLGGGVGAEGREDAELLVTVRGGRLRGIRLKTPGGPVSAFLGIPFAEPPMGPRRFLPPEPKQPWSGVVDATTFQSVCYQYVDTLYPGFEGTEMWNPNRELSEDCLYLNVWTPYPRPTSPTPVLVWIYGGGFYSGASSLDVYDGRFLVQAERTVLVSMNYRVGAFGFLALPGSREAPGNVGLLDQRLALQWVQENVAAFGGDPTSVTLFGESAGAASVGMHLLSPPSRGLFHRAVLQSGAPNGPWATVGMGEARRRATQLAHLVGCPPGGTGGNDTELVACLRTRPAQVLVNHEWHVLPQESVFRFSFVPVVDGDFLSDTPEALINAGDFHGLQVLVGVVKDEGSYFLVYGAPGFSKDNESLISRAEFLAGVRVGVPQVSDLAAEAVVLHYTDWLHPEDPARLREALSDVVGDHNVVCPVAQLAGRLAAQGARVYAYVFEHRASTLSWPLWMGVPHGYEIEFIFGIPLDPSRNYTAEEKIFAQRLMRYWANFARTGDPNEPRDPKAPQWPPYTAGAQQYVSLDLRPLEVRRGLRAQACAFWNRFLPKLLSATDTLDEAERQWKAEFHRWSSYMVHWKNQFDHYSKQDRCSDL

In the case of `CCCCCCOC(=O)[C@H](CCC(=O)NCCC1CCN(Cc2ccccc2)CC1)NC(=O)c1ccccc1`, the inhibition (usually the share of the control response that was lost under treatment) in series [1] turned out to be 40%; in series [8], 80%. Moreover, the results for the viability at 0.3 µM in [2] and in series [7] were 44.1% and 53.4%, respectively. Moreover, the 50% inhibitory concentration (IC50) – broadly, the concentration at which inhibition is half-maximal – turned out to be 5.31 µM in series [3] and 14.1 µM in [9]. Also, the Activity in series [4] is recorded as 55%; in series [5] it was “Non-Toxic”. Besides, the result in [6] was inactive.
As to `CCOC(=O)[C@@H](CCC(=O)NCCC1CCN(Cc2ccccc2)CC1)NC(=O)c1ccccc1`, the viability at 0.3 µM in series [2] worked out at 15.1%; in series [7], 39.8%. Besides, in [5], the Activity entry is listed as “Non-Toxic”. Further, the apparent permeability (Papp) (commonly the rate of passage across a membrane or cell layer, normalised by area and donor concentration) at 4 h, 1 mg/ml in series [10] was found to be 6.6 ×10⁻⁶ cm/s. In addition, the IC50 in [11] is 0.5 µM; in series [12], 0.39 µM. For the same molecule, the result in series [6] was inactive.
Take `O=C(CC[C@H](NC(=O)c1ccccc1)C(=O)O)NCCC1CCN(Cc2ccccc2)CC1`: the viability at 0.3 µM in [2] is 46.5%; in series [7], 50.6%. For the same molecule, the Activity result in series [5] is given as “Non-Toxic”. For the same molecule, in [10], the apparent permeability (Papp) at 4 h, 1 mg/ml worked out at 3.5 ×10⁻⁶ cm/s. Besides, the IC50 in series [11] was 0.76 µM; in [12], > 10 µM. In addition, the result in series [6] was inactive.
As for `COc1ccc2[nH]cc(CCNC(C)=O)c2c1` [MELATONIN], the viability at 0.3 µM in [2] was determined as 33.4%; in series [7] it was 31.4%.
With `CCOC(=O)[C@H](CCC(=O)NCCC1CCN(Cc2ccccc2)CC1)NC(=O)c1ccc2cc(OC)ccc2c1`, the viability at 0.3 µM in [2] was determined as 25.3%; in series [7], 37.7%. Moreover, the Activity result in series [5] was “Non-Toxic”. Also, the Papp at 4 h, 1 mg/ml in [10] was determined as 8.3 ×10⁻⁶ cm/s. Moreover, the concentration for half-maximal inhibition (IC50) in series [11] is 0.89 µM; in [12], 3.8 µM. Further, the outcome in series [6] was inactive.
Take `CCOC(=O)CC[C@@H](NC(=O)OCc1ccccc1)C(=O)NCCC1CCN(Cc2ccccc2)CC1`: the viability at 0.3 µM in [2] was 31.6%; in [7], 47%. The Activity entry in series [5] is “Non-Toxic”. In series [10], this molecule returned a Papp at 4 h, 1 mg/ml of 16.7 ×10⁻⁶ cm/s. Moreover, the figures for the half-inhibitory concentration (IC50) in [11] and in series [12] were 3 µM and 0.17 µM, respectively. In addition, the outcome in series [6] was inactive. The Ratio IC50 in series [13] was found to be 10.
`CCOC(=O)[C@H](CCC(=O)NCCC1CCN(Cc2ccccc2)CC1)NC(=O)c1ccccc1`: the viability at 0.3 µM in series [2] was determined as 38.6%; in series [7], 50.9%. The Activity entry in series [5] was “Non-Toxic”. Also, the Papp at 4 h, 1 mg/ml in series [10] was 5.2 ×10⁻⁶ cm/s. Moreover, the IC50 in series [11] stood at 0.85 µM; in series [12] it was 1.3 µM. In [6], the result was inactive.
With `CCCCCCOC(=O)[C@@H](CCC(=O)NCCC1CCN(Cc2ccccc2)CC1)NC(=O)c1ccccc1`, the viability at 0.3 µM in series [2] is 13%; in [7], 32.2%. In addition, the Activity entry in series [5] was “Non-Toxic”. The molecule further registered a Papp at 4 h, 1 mg/ml in series [10] of 13.9 ×10⁻⁶ cm/s. Further, the IC50 worked out at 0.89 µM in [11] and 0.36 µM in [12]. Besides, the outcome in series [6] was inactive.
On to `COc1ccc2cc(C(=O)N[C@@H](CCC(=O)NCCC3CCN(Cc4ccccc4)CC3)C(=O)O)ccc2c1`, for which the viability at 0.3 µM came out at 35% in series [2] and 45% in [7]. Also, the Activity result in [5] was “Non-Toxic”. The concentration for half-maximal inhibition (IC50) in series [11] amounted to 15.2 µM; in [12], 97 µM. In series [6], the result was inactive.
Turning to `CCOC(=O)CC[C@@H](NC(=O)OCc1ccccc1)C(=O)OCC`, the viability at 0.3 µM in [2] is 34.7%; in series [7], 47.1%. In addition, the Activity entry in [5] is “Non-Toxic”. For the same molecule, the IC50 in [11] and in [12] was > 10 µM in each case. Moreover, the result in series [6] was inactive.
In the case of `O=C(CC[C@H](NC(=O)c1c[nH]c2ccccc12)C(=O)O)NCCC1CCN(Cc2ccccc2)CC1`, the values for the viability at 0.3 µM in [2] and in [7] were 34.6% and 48.4%, respectively. Moreover, the Activity result was “Non-Toxic” in series [5] and 70 to 73% in series [14]. Further, the apparent permeability (Papp) at 4 h, 1 mg/ml in [10] came out at 1.8 ×10⁻⁶ cm/s. For the same molecule, the IC50 was 6.4 µM in series [11] and 71 µM in series [12].
Consider `CCOC(=O)CC[C@H](NC(=O)OCc1ccccc1)C(=O)NCCC1CCN(Cc2ccccc2)CC1`, for which the viability at 0.3 µM turned out to be 35.2% in series [2] and 42.7% in [7]. In addition, the “%max” value in [15] was 63%. The Activity in [4] was 69%; in series [5], “Non-Toxic”; in series [16], “Dose-dependent effect”; in [17] it was 48%. In addition, in [10], the apparent permeability (Papp) at 4 h, 1 mg/ml was determined as 21 ×10⁻⁶ cm/s. Further, the figures for the IC50 in series [11], in series [9] and in series [12] were 4.99 µM, 90.1 µM and 0.4 µM, respectively. In addition, the result in series [6] was inactive. Besides, in series [13], the Ratio IC50 was 10.
As for `CCCCCCOC(=O)[C@H](CCC(=O)NCCC1CCN(Cc2ccccc2)CC1)NC(=O)c1c[nH]c2ccccc12`, the figures for the viability at 0.3 µM in [2] and in series [7] were 22.1% and 31.8%, respectively. For the same molecule, the Activity result in series [5] is “Non-Toxic”; in [14], 70 to 73%. The apparent permeability (Papp) at 4 h, 1 mg/ml in [10] was found to be 9.6 ×10⁻⁶ cm/s. Also, the IC50 is 3.04 µM in [11] and 1.85 µM in series [12].
Regarding `CCOC(=O)[C@H](CCC(=O)NCCC1CCN(Cc2ccccc2)CC1)NC(=O)c1c[nH]c2ccccc12`, the values for the viability at 0.3 µM in series [2] and in [7] were 39.5% and 42.4%, respectively. Besides, the values for the Activity entry in [5] and in [14] were “Non-Toxic” and 70 to 73%, respectively. Also, the apparent permeability (Papp) at 4 h, 1 mg/ml in series [10] was determined as 4.5 ×10⁻⁶ cm/s. The values for the IC50 in [11] and in series [12] were 1.9 µM and 0.3 µM, respectively.
Consider `O=C(CC[C@@H](NC(=O)c1ccccc1)C(=O)O)NCCC1CCN(Cc2ccccc2)CC1`, for which the viability at 0.3 µM came out at 22.6% in [2] and 38.5% in [7]. Moreover, the Activity entry in series [5] is reported as “Non-Toxic”. Further, the Papp at 4 h, 1 mg/ml in [10] was 4.6 ×10⁻⁶ cm/s. For the same molecule, the half-maximal inhibitory concentration (IC50) in series [11] worked out at 20 µM; in series [12], 82 µM. Besides, the result in series [6] was inactive.
In the case of `CCOC(=O)CC[C@H](NC(=O)OCc1ccccc1)C(=O)OCC`, the values for the viability at 0.3 µM in series [2] and in series [7] were 37.3% and 51.6%, respectively. Also, the Activity result in [5] is given as “Non-Toxic”. Further, the half-maximal inhibitory concentration (IC50) in series [11] and in series [12] was > 10 µM throughout. The result in series [6] was inactive.
